Columns and labels:
Type in all cases: in vivo
[1] = tested on: larvae of the banded cucumber beetle (Diabrotica balteata); test: Diabrotica balteata spray test; settings: 168 h, after 7 days, wheat seeds, read-out: efficacy (seedlings grown up); for pest or weed control at 32 µg/disc, 100 g/ha: 100 g/ha (=32 μg/well); for pest or weed control at 160 µg/disc, 500 g/ha: 500 g/ha (=160 μg/well)
Summary of the method: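 Germinated wheat seedlings (5 per well, agar plates) sprayed with compound in acetone/DMF diluted in water with 1000 ppm emulsifier, then infested with 10-20 larvae per unit. Efficacy scored after 7 days as % seedling growth relative to untreated, uninfested control (100% = normal growth, 0% = none).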

[2] = tested on: cattle tick larvae (Rhipicephalus microplus), strain Parkhurst, resistant against synthetic pyrethroids; test: Rhipicephalus (Boophilus) microplus in-vitro contact test, larval cattle tick; settings: 5 μg/cm^2 (=500 g/ha), after 48 hours, read-out: efficacy (larvae dead or moribund)
Summary of the method: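 Acetone solutions of compound were coated on glass tube walls (900 ppm giving 5 μg/cm^2) and dried. 20–50 pyrethroid-resistant Parkhurst larvae were held per tube at 27° C and 85% relative humidity; after 48 h negative geotaxis scored efficacy as percent larvae dead or moribund.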

[3] = tested on: fall armyworm larvae (Spodoptera frugiperda); test: Spodoptera frugiperda spray test (maize leaf sections); settings: 168 h
Summary of the method: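 Maize leaf sections were sprayed with compound formulated in acetone/DMF and diluted in water containing 1000 ppm emulsifier. Once dry, sections were infested with fall armyworm larvae. Mortality (%) was scored after 7 days.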

[4] = tested on: adult engorged female ticks (Rhipicephalus microplus); test: Rhipicephalus (Boophilus) microplus injection test; settings: 168 h, egg deposition after 7 days, read-out: efficacy (infertile eggs); for pest or weed control at 0.004 mg: 4 μg/animal; for pest or weed control at 0.02 mg: 20 μg/animal
Summary of the method: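 Compound was dissolved in DMSO at 10 mg per 0.5 mL and diluted with DMSO to the test concentration. Five engorged adult females received a 1 μL abdominal injection and were kept in a climate chamber. After 7 days, fertile egg deposition was scored, with unclear eggs held until hatching at about 42 days; 100% efficacy means all eggs were infertile.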

[5] = tested on: larvae of the southern green stink bug (Nezara viridula); test: Nezara viridula spray test; settings: in Hordeum vulgare, 96 h
Summary of the method: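 Barley plants infested with Nezara viridula larvae were sprayed with compound in acetone/dimethylformamide, diluted in water containing 1000 ppm alkylarylpolyglycol ether emulsifier. Mortality (%) was scored after 4 days; 100% means all stink bugs killed.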

[6] = tested on: green peach aphid (Myzus persicae); test: Myzus persicae oral test; settings: 120 h
Method: Solvent: 100 parts by weight acetone
To produce a suitable preparation of active compound, 1 part by weight of active compound is mixed with the stated amount of solvent, and the concentrate is diluted with water to the desired concentration.
50 μL compound solution is filled in microtiter plates and 150 μL IPL41 insect medium (33%+15% sugar) is added to obtain a total volume of 200 μL per well. Afterwards the plates are sealed with parafilm through which a mixed population of the green peach aphid (Myzus persicae) can suck on the compound preparation.
(§1) After 5 days mortality in % is determined. 100% means all aphids have been killed and 0% means none of the aphids have been killed.

[7] = tested on: adult cat fleas (Ctenocephalides felis); test: Ctenocephalides felis in-vitro contact test, adult cat flea; settings: 5 μg/cm^2 (=500 g/ha), after 48 hours, read-out: efficacy (fleas dead or moribund)
Method: 9 mg compound is solved in 1 mL acetone and diluted with acetone to the desired concentration. 250 μL of the test solution is filled in 25 mL glass test tubes and homogeneously distributed on the inner walls by rotation and tilting on a shaking device (2 h at 30 rpm). With a compound concentration of 900 ppm, an inner surface of 44.7 cm^2 and a homogeneous distribution, a dose of 5 μg/cm^2 is achieved.
After the solvent has evaporated, each test tube is filled with 5-10 adult cat fleas (Ctenocephalides felis), closed with a perforated lid and incubated in a lying position at room temperature and relative humidity. After 48 hours efficacy is determined. The fleas are patted on the ground of the tubes and are incubated on a heating plate at 45-50° C. for at most 5 minutes. Immotile or uncoordinated moving fleas, which are not able to escape the heat by climbing upwards, are marked as dead or moribund.
An efficacy of 100% means all fleas are dead or moribund; 0% means no fleas are dead or moribund.

[8] = tested on: green peach aphid (Myzus persicae); test: Myzus persicae spray test; settings: foliar, 120 h, after 5 days, Chinese cabbage leaf disks
Method: Solvent: 78.0 parts by weight acetone • 1.5 parts by weight dimethylformamide
(§2) Emulsifier: alkylarylpolyglycol ether
(§3) To produce a suitable preparation of active compound, 1 part by weight of active compound is mixed with the stated amount of solvents and is diluted with water, containing an emulsifier concentration of 1000 ppm, to the desired concentration. Further test concentrations are prepared by dilution with emulsifier containing water.
Chinese cabbage (Brassica pekinensis) leaf disks infected with all instars of the green peach aphid (Myzus persicae), are sprayed with a preparation of the active ingredient of the desired concentration.
as §1

[9] = tested on: adult unfed cat fleas (Ctenocephalides felis); test: Ctenocephalides felis oral test; settings: 48 h, 100 ppm in cattle blood, after 2 days
Summary of the method: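 About 20 adult unfed Ctenocephalides felis fed through parafilm on cattle blood dosed with compound (DMSO stock diluted in blood), blood chamber at 37°C, fleas at room temperature. Mortality (%) scored after 2 days; 100% means all fleas killed.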

[10] = tested on: adult brown dog ticks (Rhipicephalus sanguineus); test: Rhipicephalus sanguineus in-vitro contact test with adult brown dog ticks; settings: after 48 hours, read-out: efficacy (ticks dead or moribund); for pest or weed control at 1 µg/cm2, 100 g/ha: 1 μg/cm^2 (=100 g/ha); for pest or weed control at 5 µg/cm2, 500 g/ha: 5 μg/cm^2 (=500 g/ha)
Summary of the method: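 Compound in acetone coated onto glass tube inner walls at 900 ppm, giving 5 μg/cm^2. Adult ticks (5-10 per tube) held at room temperature for 48 h, then placed on a 45-50° C. heating plate for up to 5 min. Ticks unable to climb away counted dead or moribund; efficacy given as % dead/moribund.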

[11] = tested on: brown planthopper (Nilaparvata lugens); test: Nilaparvata lugens spray test; settings: in Oryza sativa, 96 h
Method: Solvent: 78.0 parts by weight of acetone • • 1.5 parts by weight of dimethylformamide
as §2, §3
Rice plants (Oryza sativa) are sprayed with a preparation of the active ingredient of the desired concentration and the plants are infested with the brown planthopper (Nilaparvata lugens).
After 4 days mortality in % is determined. 100% means all planthoppers have been killed and 0% means none of the planthoppers have been killed.

Row | Structure (SMILES) | pest or weed control at 32 µg/disc, 100 g/ha [1] | pest or weed control at 5 µg/cm2 [2] | pest or weed control at 0.004 mg [4] | mortality at 500 g/ha [5] | mortality at 4 ppm [6] | pest or weed control at 5 µg/cm2 [7] | mortality at 100 ppm [9] | mortality at 100 g/ha [3] | mortality at 500 g/ha [11] | further results
1 | CSc1nc(C(C)NC(=O)c2cc(Cl)cc(S(C)(=O)=O)c2)n(-c2ccc(Cl)cn2)n1 (racemic) [I-059, 3-chloro-N-[1-[2-(5-chloro-2-pyridyl)-5-methylsulfanyl-1,2,4-triazol-3-yl]ethyl]-5-methylsulfonyl-benzamide] | 100% | 100% | 100% | 100% | 100% | 80% | – | – | – | pest or weed control at 160 µg/disc, 500 g/ha [1]: 100%; mortality at 500 g/ha [3]: 100%; pest or weed control at 0.02 mg [4]: 100%; mortality at 100 g/ha [5]: 100%
2 | CC(NC(=O)c1cc(Cl)cc(S(C)(=O)=O)c1)c1nc([S+](C)[O-])nn1-c1ccc(Cl)cn1 (racemic) [I-061, 3-chloro-N-[1-[2-(5-chloro-2-pyridyl)-5-methylsulfinyl-1,2,4-triazol-3-yl]ethyl]-5-methylsulfonyl-benzamide] | – | – | – | 100% | 100% | – | – | – | – | pest or weed control at 160 µg/disc, 500 g/ha [1]: 100%; mortality at 100 g/ha [5]: 100%; mortality at 500 g/ha ([8]; 500 g/ha): 90%
3 | CC(NC(=O)c1cc(Br)cc(Br)c1)c1nc(N)nn1-c1ccc(C(=O)N2CCOCC2)cn1 (racemic) [I-107, N-[1-[5-amino-2-[5-(morpholine-4-carbonyl)-2-pyridyl]-1,2,4-triazol-3-yl]ethyl]-3,5-dibromo-benzamide] | – | – | – | – | 90% | 90% | – | – | – | –
4 | CC(NC(=O)c1cc(Cl)cc(C(F)(F)F)c1)c1nc(NC(=O)C2(Cl)CC2)nn1-c1ncccn1 (stereo not drawn) [I-022] | – | 90% | 100% | – | 100% | 100% | 100% | 100% | – | pest or weed control at 1 µg/cm2, 100 g/ha [10]: 100%; pest or weed control at 5 µg/cm2, 500 g/ha [10]: 100%
5 | CC(NC(=O)c1cc(Br)cc(C(F)(F)F)c1)c1nc(N(C)C(=O)OC(C)(C)C)nn1-c1ncccn1 (stereo not drawn) [I-089] | 100% | – | 100% | – | 100% | 90% | 100% | 100% | – | –
6 | CC(=O)N(C)c1nc(C(C)NC(=O)c2cc(C(F)(F)F)cc(C(F)(F)F)c2)n(-c2ncccn2)n1 (stereo not drawn) [I-091] | 100% | – | 100% | – | 100% | 100% | 100% | 100% | – | –
7 | CNc1nc(C(C)NC(=O)c2cc(Br)cc(Br)c2)n(-c2ncccn2)n1 (stereo not drawn) [I-100] | 100% | 100% | 100% | – | 100% | 100% | 100% | 100% | – | pest or weed control at 1 µg/cm2, 100 g/ha [10]: 100%; pest or weed control at 5 µg/cm2, 500 g/ha [10]: 100%
8 | CNc1nc(C(C)NC(=O)c2cc(Cl)cc(Br)c2)n(-c2ncccn2)n1 (stereo not drawn) [I-121] | 100% | 100% | 100% | – | – | 100% | 100% | 100% | 90% | pest or weed control at 0.02 mg [4]: 100%
9 | CNc1nc([C@H](C)NC(=O)c2cc(Br)cc(Br)c2)n(-c2ncccn2)n1 [I-131] | 100% | 100% | – | 100% | – | 100% | – | 100% | 90% | pest or weed control at 1 µg/cm2, 100 g/ha [10]: 100%; pest or weed control at 5 µg/cm2, 500 g/ha [10]: 100%
10 | C[C@H](NC(=O)c1cc(C(F)(F)F)cc(C(F)(F)F)c1)c1nc(N(C)C(=O)OC(C)(C)C)nn1-c1ncccn1 [I-133, tert-butyl N-[5-[(1S)-1-[[3,5-bis(trifluoromethyl)benzoyl]amino]ethyl]-1-pyrimidin-2-yl-1,2,4-triazol-3-yl]-N-methyl-carbamate] | 100% | 100% | – | 100% | – | 100% | – | 100% | 100% | –
11 | CNc1nc([C@H](C)NC(=O)c2cc(Cl)cc(C(C)(C)C#N)c2)n(-c2ncccn2)n1 [I-137] | 100% | 80% | – | 100% | – | 90% | – | 100% | 90% | –
12 | C[C@H](NC(=O)c1cc(C(F)(F)F)cc(C(F)(F)F)c1)c1nc(N(C)C)nn1-c1ncccn1 [I-141, N-[(1S)-1-[5-(dimethylamino)-2-pyrimidin-2-yl-1,2,4-triazol-3-yl]ethyl]-3,5-bis(trifluoromethyl)benzamide] | 100% | 100% | – | 100% | – | 100% | – | 100% | 100% | pest or weed control at 1 µg/cm2, 100 g/ha [10]: 80%; pest or weed control at 5 µg/cm2, 500 g/ha [10]: 100%
13 | CON(C)c1nc([C@H](C)NC(=O)c2cc(C(F)(F)F)cc(S(C)(=O)=O)c2)n(-c2ncccn2)n1 [I-153] | – | – | – | 100% | – | – | – | – | 100% | mortality at 100 g/ha [8]: 90%
14 | CNc1nc([C@H](C)NC(=O)c2cc(OC(F)(F)F)cc(S(=O)(=O)C3CC3)c2)n(-c2ncccn2)n1 [I-184] | 100% | – | – | 100% | – | – | – | – | 100% | mortality at 100 g/ha [8]: 90%
15 | C[C@H](NC(=O)c1cc(OC(F)(F)F)cc(S(=O)(=O)C2CC2)c1)c1nc(N)nn1-c1ccc(C#N)cn1 [I-205] | – | – | – | – | – | – | – | 100% | – | mortality at 100 g/ha [8]: 90%
16 | C[C@H](NC(=O)c1cc(OC(F)(F)F)cc(C2CC2)c1)c1nc(N)nn1-c1ncccn1 [I-216] | – | – | – | – | – | – | – | 100% | – | mortality at 100 g/ha [8]: 90%
